Test [1] deals with Karpas 1106, SU-DHL-5, SeAx and HUT-78 cells. Briefly: Cell viability (MTS) of hematologic cancer cell lines under low serum. In kind it is cell-based. To be noted: increasing concentrations, 24 hours, low serum conditions (0.5-5%), FIG. 1A. As for the experimental part: (A) Karpas 1106, SU-DHL-5, SeAx and HUT-78 cells were plated at a densities of 6×10^3 in 96 well plates (100 μL total volume per well) and treated for 24 hours in a 37° C. incubator (5% CO2) with increasing concentrations of the Antp-AAC-11-LZ (363-399). 20 μL MTS reagent was then added to each well and plates were incubated for an additional 4 hours. Absorbance was measured at 490 nm using a 96-well plate reader. The extent to which the Antp-AAC-11-LZ (363-399) peptide inhibited cell proliferation was calculated as a percentage of the absorbance in each well containing the Antp-AAC-11-LZ (363-399) peptide relative to wells containing no peptide (negative control). […]
Viability of cells cultured in the 96-well culture plates was assessed by measuring mitochondrial dehydrogenase activity, using the colorimetric CellTiter 96® AQueous One Solution Cell Proliferation Assay (Promega), according to the manufacturer′ instructions. […] The color can then be quantified using a simple colorimetric assay. The results are read on a multiwall scanning spectrophotometer (ELISA reader).
The inventors evaluated the capacity of the Antp-AAC-11-LZ (363-399) peptide to induce cell death a panel of hematologic and solid tumor cell lines, both P53 positive and P53 negative, derived from different tissues of origin, under low serum conditions (0.5-5%). […]

The subject of another test is D3H2LN cells. Briefly: Transwell Boyden chamber migration assay, D3H2LN cells. To be noted: 2 μM, toward 10% FBS, 12 h, FIG. 7A. In kind it is cell-based. Here is the method:
FIG. 7: Antp-AAC-11-LZ (363-399) peptide inhibits cell migration and invasion. (A) D3H2LN cells were added to the upper well of modified Boyden chamber (transwell) plates with a vehicle or with either 2 μM of the Antp-AAC-11-LZ (363-399) peptide or the Antp-only peptide and subjected to a transwell migration assay as described under Materials and methods. The cells were allowed to migrate toward 10% FBS for 12 […]h. Triplicate wells were used for each of three independent experiments. The results are expressed relative to the migration of the untreated cells (=100%). Column: Mean of three experiments. Bar: s.e. P-value was determined by Student's t-test (*P<0.01). (B) D3H2LN cells were seeded in a Matrigel-coated Boyden chamber with a vehicle or with either 2 μM of the Antp-AAC-11-LZ (363-399) peptide or the Antp-only peptide and subjected to a transwell migration assay as described under Materials and methods. The cells were allowed to migrate toward 10% FBS for 24 […]h. Triplicate wells were used for each of three independent experiments. The results are expressed relative to the migration of the untreated cells (=100%). Column: Mean of three experiments. Bar: s.e. P-value was determined by Student's t-test (*P<0.01) […]

Test [2] concerns human triple-negative breast cancer xenograft PDX02. In words: Triple-negative breast cancer patient-derived xenograft PDX02 in nude mice. In kind it is in vivo. To be noted: 2.4 mg/kg i.p., 7 daily injections, FIG. 8B. Here is the method:
Breast cancer fragments were obtained from patients at the time of surgery, with informed written patient consent. After imaging-guided human tumor biopsies had been performed, fragments of 30 to 60 mm^3 were subcutaneously grafted in 6-week-old NMRI-nude mice (Centre-Elevage-Janvier, France), under xylasin (10 mg/kg)/ketamin (100 mg/kg) anesthesia. Mice were maintained in specific pathogen-free animal housing (Institut Universitaire d'Hematologie) and received estrogen (17 mg/mL) diluted in drinking water. Xenografts were characterized and subsequently subcutaneously transplanted from mouse to mouse. […] Two human triple-negative breast cancer (HBC) xenografts models were used in our experiments (PDX01 and PDX02). […] Following transplantation (n=6 per model) tumor growth was assessed by measuring tumor size in two dimension using a Vernier caliper. Tumor volume was calculated using the formula [3.14×long axis×short axis×short axis]/6 (Kjonniksen et al., 1989). […] Mice were weighted and the tumor size was measured by a caliper and recorded daily. Fourteen days after beginning of the treatment mice were sacrificed. The tumors, kidney, lungs, heart, liver, pancreas and spleen were taken and fixed. Paraffin-embedded sections were prepared and stained with hematoxylin and eosin for histological analysis.

In the case of “Ac-RQIKIWFKKQNRRMKWKKAKLNAEKLKDFKIRLQYFARGLQVYIRQLRLALQGKT-NH2 [Antp-AAC-11-LZ (363-399)]”, the “loss of cellular viability” value in test [1] is recorded as “drastic loss of cellular viability”. Besides, in the test on D3H2LN cells, the cell migration result is reported as “substantially decreased”. The “tumor size versus vehicle” value in test [2] was “significantly smaller tumors”.

The record behind these values is patent publication US10358469B2, “Methods and pharmaceutical compositions for the treatment of cancer” (INSERM (INSTITUT NATIONAL DE LA SANTÉ ET DE LA RECHERCHE …, priority 2014, dated 2019).
